Source: PubChem BioAssay AID248 (DTP/NCI, 2004)
“And” between values parts separate entries of the source, which are not always exact repeats. Equal values may be shown once. Toxic doses and inconclusive results are not listed. No stated cut-off is given here; in the data, active means T/C of 150% or more; inactive means T/C below 125%.

Tested on: L1210 leukemia ip in BDF1 mice, survival T/C
Assay: NCI In Vivo Anticancer Drug Screen. Data for tumor model L1210 Leukemia (intraperitoneal) in B6D2F1 (BDF1) mice
Settings: endpoint: mean survival time, higher = longer survival
Procedure, shortened: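 Survival endpoint. Drug-treated group vs vehicle group, expressed as T divided by C. Tumor passaged by transplantation.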

[1] = dose: 100.0 mg/kg/injection, schedule: Q01DX009 (ip), vehicle: Klucel (hydroxypropylcellulose) (HPC)
[2] = dose: 100.0 mg/kg/injection, schedule: Q04DX003 (ip), vehicle: Klucel (hydroxypropylcellulose) (HPC)
[3] = dose: 200.0 mg/kg/injection, schedule: Q01DX009 (ip), vehicle: Klucel (hydroxypropylcellulose) (HPC)
[4] = dose: 100.0 mg/kg/injection, schedule: Q01DX009 (ip), vehicle: saline
[5] = dose: 200.0 mg/kg/injection, schedule: Q01DX009 (ip), vehicle: saline
[6] = dose: 400.0 mg/kg/injection, schedule: Q01DX009 (ip), vehicle: saline
[7] = dose: 100.0 mg/kg/injection, schedule: Q04DX002 (ip), vehicle: Klucel (hydroxypropylcellulose) (HPC)
[8] = dose: 200.0 mg/kg/injection, schedule: Q04DX002 (ip), vehicle: Klucel (hydroxypropylcellulose) (HPC)
[9] = dose: 400.0 mg/kg/injection, schedule: Q04DX002 (ip), vehicle: Klucel (hydroxypropylcellulose) (HPC)
[10] = dose: 100.0 mg/kg/injection, schedule: Q04DX003 (ip), vehicle: saline
[11] = dose: 200.0 mg/kg/injection, schedule: Q04DX003 (ip), vehicle: saline
[12] = dose: 400.0 mg/kg/injection, schedule: Q04DX003 (ip), vehicle: saline
[13] = dose: 25.0 mg/kg/injection, schedule: Q01DX009 (ip), vehicle: saline with Tween-80
[14] = dose: 50.0 mg/kg/injection, schedule: Q01DX009 (ip), vehicle: saline with Tween-80
[15] = dose: 100.0 mg/kg/injection, schedule: Q01DX001 (ip), vehicle: saline with Tween-80
[16] = dose: 100.0 mg/kg/injection, schedule: Q04DX003 (ip), vehicle: saline with Tween-80
[17] = dose: 200.0 mg/kg/injection, schedule: Q01DX001 (ip), vehicle: saline with Tween-80
[18] = dose: 200.0 mg/kg/injection, schedule: Q04DX003 (ip), vehicle: saline with Tween-80
[19] = dose: 400.0 mg/kg/injection, schedule: Q04DX003 (ip), vehicle: saline with Tween-80
[20] = dose: 100.0 mg/kg/injection, schedule: Q04DX002 (ip), vehicle: saline

Measured: T/C

CCCCCCCCCCCCCCCCCC[N+](C)(C)C
inactive: dose: 1.0 mg/kg/injection, schedule: Q01DX015 (ip), vehicle: saline 94 % of control | dose: 2.0 mg/kg/injection, schedule: Q01DX015 (ip), vehicle: saline 94 % of control | dose: 3.12 mg/kg/injection, schedule: Q01DX009 (ip), vehicle: saline 94 % of control | dose: 4.0 mg/kg/injection, schedule: Q01DX015 (ip), vehicle: saline 95 % of control | dose: 6.25 mg/kg/injection, schedule: Q01DX009 (ip), vehicle: saline 94 % of control | dose: 12.5 mg/kg/injection, schedule: Q04DX003 (ip), vehicle: saline 87 % of control

O=C(O)COc1ccccc1OCC(=O)O
inactive: [1] 98 % of control | [2] 94 % of control | [3] 100 % of control | dose: 200.0 mg/kg/injection, schedule: Q04DX003 (ip), vehicle: Klucel (hydroxypropylcellulose) (HPC) 100 % of control | dose: 400.0 mg/kg/injection, schedule: Q04DX003 (ip), vehicle: Klucel (hydroxypropylcellulose) (HPC) 98 % of control

O=C(NN=C1CCCC1)c1ccccc1O
inactive: [4] 102 % of control | [5] 102 % of control | [6] 120 % of control

Nc1nc(SCC(=O)c2ccc(F)cc2)sc1C(=O)c1ccc(F)cc1
inactive: [7] 100 % of control | [8] 112 % of control | [9] 100 % of control

CCC[CH2][Sn](=[O])[CH2]CCC
inactive: dose: 1.5 mg/kg/injection, schedule: Q01DX001 (ip), vehicle: saline with Tween-80 90 % of control | dose: 3.0 mg/kg/injection, schedule: Q01DX001 (ip), vehicle: saline with Tween-80 100 % of control | dose: 6.0 mg/kg/injection, schedule: Q01DX001 (ip), vehicle: saline with Tween-80 107 % of control

Cc1nc([N+](=O)[O-])cn1CCN1CCOCC1
inactive: dose: 50.0 mg/kg/injection, schedule: Q01DX009 (ip), vehicle: Klucel (hydroxypropylcellulose) (HPC) 102 % of control | [1] 94 % of control | [7] 92 % of control | [3] 102 % of control | [8] 105 % of control | [9] 105 % of control

CC(C(c1ccc(Br)cc1)c1ccccc1Cl)[N+](=O)[O-] (stereo not given)
inactive: [10] 95 % of control | [11] 86 % of control | [12] 101 % of control

O=C(/C=C/c1ccccc1)NC(=S)Nc1cccc2ccccc12
inactive: [13] 96 % of control and 90 % of control | [14] 94 % of control | [15] 93 % of control | dose: 100.0 mg/kg/injection, schedule: Q04DX002 (ip), vehicle: alcohol 87 % of control | [16] 86 % of control | [17] 97 % of control | dose: 200.0 mg/kg/injection, schedule: Q04DX002 (ip), vehicle: alcohol 97 % of control | [18] 100 % of control | dose: 400.0 mg/kg/injection, schedule: Q01DX001 (ip), vehicle: saline with Tween-80 93 % of control | dose: 400.0 mg/kg/injection, schedule: Q04DX002 (ip), vehicle: alcohol 93 % of control | [19] 105 % of control

NC(=S)c1cccc(OCCc2ccccc2)c1
inactive: [15] 97 % of control | [17] 102 % of control

CCOC(=O)/C(C#N)=C\c1cccs1
inactive: [2] 103 % of control

O=C1NC(=O)C(c2ccccc2)(c2ccc(Cl)cc2Cl)N1 (stereo not given)
inactive: dose: 100.0 mg/kg/injection, schedule: Q01DX001 (ip), vehicle: carboxymethylcellulose (CMC) 100 % of control | dose: 100.0 mg/kg/injection, schedule: Q01DX001 (ip), vehicle: saline 121 % of control | [4] 90 % of control | [10] 86 % of control | dose: 200.0 mg/kg/injection, schedule: Q01DX001 (ip), vehicle: carboxymethylcellulose (CMC) 110 % of control | dose: 200.0 mg/kg/injection, schedule: Q01DX001 (ip), vehicle: saline 97 % of control | [5] 87 % of control | [11] 102 % of control | dose: 400.0 mg/kg/injection, schedule: Q01DX001 (ip), vehicle: carboxymethylcellulose (CMC) 105 % of control | dose: 400.0 mg/kg/injection, schedule: Q01DX001 (ip), vehicle: saline 95 % of control | [6] 89 % of control | [12] 93 % of control

COC(=O)C1CCCN1C(=O)C(C)=O (stereo not given)
inactive: [20] 102 % of control | dose: 200.0 mg/kg/injection, schedule: Q04DX002 (ip), vehicle: saline 94 % of control | dose: 400.0 mg/kg/injection, schedule: Q04DX002 (ip), vehicle: saline 113 % of control

C[n+]1cccc2cccc(O)c21
inactive: [7] 115 % of control

O=C(CNC(=O)NCc1ccccc1)N/N=C/c1cccc([N+](=O)[O-])c1
inactive: dose: 12.5 mg/kg/injection, schedule: Q01DX009 (ip), vehicle: saline with Tween-80 91 % of control | [13] 88 % of control | [14] 92 % of control and 88 % of control

O=C1CCN/C(=N\[N+](=O)[O-])N1
inactive: [15] 101 % of control | [17] 106 % of control

NCC(=O)NC(CSSCC(N)C(=O)O)C(=O)O (stereo not given)
inactive: dose: 25.0 mg/kg/injection, schedule: Q04DX002 (ip), vehicle: saline 103 % of control | dose: 50.0 mg/kg/injection, schedule: Q04DX002 (ip), vehicle: saline 103 % of control | [20] 100 % of control

O=C(NC(=O)C1CC1)C1CC1
inactive: dose: 100.0 mg/kg/injection, schedule: Q01DX009 (ip), vehicle: saline with Tween-80 94 % of control | [16] 106 % of control | dose: 200.0 mg/kg/injection, schedule: Q01DX009 (ip), vehicle: saline with Tween-80 100 % of control | [18] 87 % of control | dose: 400.0 mg/kg/injection, schedule: Q01DX009 (ip), vehicle: saline with Tween-80 100 % of control | [19] 93 % of control

c1ccc(C2c3ccccc3C(c3ccccc3)(c3ccccc3)c3ccccc32)cc1
inactive: dose: 100.0 mg/kg/injection, schedule: Q01DX001 (ip), vehicle: other 91 % of control | dose: 200.0 mg/kg/injection, schedule: Q01DX001 (ip), vehicle: other 91 % of control | dose: 400.0 mg/kg/injection, schedule: Q01DX001 (ip), vehicle: other 91 % of control

CCCCN(C)N=Nc1ccc(S(N)(=O)=O)cc1
inactive: dose: 30.0 mg/kg/injection, schedule: Q01DX Z (ip), vehicle: carboxymethylcellulose (CMC) 92 % of control | dose: 60.0 mg/kg/injection, schedule: Q01DX Z (ip), vehicle: carboxymethylcellulose (CMC) 92 % of control | dose: 90.0 mg/kg/injection, schedule: Q01DX Z (ip), vehicle: carboxymethylcellulose (CMC) 105 % of control

CCCCCCCCCCCCC[n+]1ccc(C#N)cc1
inactive: dose: 7.5 mg/kg/injection, schedule: Q04DX003 (ip), vehicle: saline 101 % of control | dose: 15.0 mg/kg/injection, schedule: Q04DX003 (ip), vehicle: saline 98 % of control | dose: 30.0 mg/kg/injection, schedule: Q04DX003 (ip), vehicle: saline 101 % of control

Cc1ccc([N+](=O)[O-])cc1NC(=O)NCCCl
inactive: [16] 90 % of control | [18] 90 % of control | [19] 92 % of control
